Measurements as given in US10168342B2, “Lipid probes and uses thereof” (THE SCRIPPS RESEARCH INSTITUTE, priority 2015, dated 2019).
Like-named read-outs stand apart in the source and are kept apart here.

What was measured:
[1] = molecular target: T1, AEA-DA lipid probe targets in Neuro2a cells (Mus musculus, UniProt O70503); details: for SILAC ratio, HSD17B12 (Q53GQ0): Neuro2a cells, AEA-DA probe
T1 sequence (O70503 1-312): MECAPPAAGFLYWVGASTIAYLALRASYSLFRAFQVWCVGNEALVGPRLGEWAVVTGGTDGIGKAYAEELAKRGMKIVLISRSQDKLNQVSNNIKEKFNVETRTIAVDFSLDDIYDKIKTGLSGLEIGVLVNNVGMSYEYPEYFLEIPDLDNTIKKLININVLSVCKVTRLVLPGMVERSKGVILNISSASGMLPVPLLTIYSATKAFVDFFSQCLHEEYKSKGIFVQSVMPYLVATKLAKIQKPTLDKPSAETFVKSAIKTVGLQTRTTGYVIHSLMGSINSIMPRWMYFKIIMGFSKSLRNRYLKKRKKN

[2] = molecular target: AEA-DA lipid probe targets in Neuro2a cells (Mus musculus, UniProt P20152)
[3] = molecular target: T2, AEA-DA lipid probe targets in Neuro2a cells (Mus musculus, UniProt Q5U680)
T2 sequence (Q5U680 1-274): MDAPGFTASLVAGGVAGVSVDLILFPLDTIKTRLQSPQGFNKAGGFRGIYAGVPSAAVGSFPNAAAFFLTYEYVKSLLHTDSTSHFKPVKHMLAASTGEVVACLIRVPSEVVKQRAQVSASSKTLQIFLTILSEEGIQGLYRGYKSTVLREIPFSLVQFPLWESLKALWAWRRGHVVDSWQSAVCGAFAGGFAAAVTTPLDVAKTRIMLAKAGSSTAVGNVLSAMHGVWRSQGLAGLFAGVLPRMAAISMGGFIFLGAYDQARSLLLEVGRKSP

[4] = molecular target: T3, AEA-DA lipid probe targets in Neuro2a cells (Mus musculus, UniProt Q8BH59)
T3 sequence (Q8BH59 1-677): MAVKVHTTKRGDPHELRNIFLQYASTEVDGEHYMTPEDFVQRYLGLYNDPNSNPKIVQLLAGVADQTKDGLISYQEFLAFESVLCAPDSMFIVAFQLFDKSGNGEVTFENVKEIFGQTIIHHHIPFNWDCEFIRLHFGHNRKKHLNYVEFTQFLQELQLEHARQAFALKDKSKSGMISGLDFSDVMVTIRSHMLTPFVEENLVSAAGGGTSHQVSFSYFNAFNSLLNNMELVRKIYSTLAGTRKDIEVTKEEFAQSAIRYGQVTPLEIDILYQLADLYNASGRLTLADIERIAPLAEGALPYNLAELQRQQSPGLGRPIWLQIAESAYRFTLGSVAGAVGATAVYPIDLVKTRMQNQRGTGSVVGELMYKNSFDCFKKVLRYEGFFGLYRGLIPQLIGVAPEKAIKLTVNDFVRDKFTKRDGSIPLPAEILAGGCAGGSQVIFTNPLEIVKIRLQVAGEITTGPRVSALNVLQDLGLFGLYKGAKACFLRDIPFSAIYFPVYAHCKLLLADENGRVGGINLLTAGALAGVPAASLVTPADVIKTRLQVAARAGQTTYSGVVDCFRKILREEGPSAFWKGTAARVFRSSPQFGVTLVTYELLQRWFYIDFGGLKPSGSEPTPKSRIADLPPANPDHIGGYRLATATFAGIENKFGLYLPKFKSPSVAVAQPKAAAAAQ

[5] = molecular target: AEA-DA lipid probe targets in Neuro2a cells (Mus musculus, UniProt Q8VDD5)
[6] = molecular target: T4, AEA-DA lipid probe targets in Neuro2a cells (Mus musculus, UniProt Q9D1D4)
T4 sequence (Q9D1D4 32-219): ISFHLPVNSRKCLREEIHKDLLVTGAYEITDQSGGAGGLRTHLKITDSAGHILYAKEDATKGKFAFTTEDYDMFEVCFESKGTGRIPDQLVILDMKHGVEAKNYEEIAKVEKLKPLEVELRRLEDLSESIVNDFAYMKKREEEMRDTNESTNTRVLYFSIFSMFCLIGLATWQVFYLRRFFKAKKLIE

[7] = molecular target: AEA-DA lipid probe targets in Neuro2a cells (Mus musculus, UniProt Q9D8N0)
[8] = molecular target: AEA-DA lipid probe targets in Neuro2a cells (Mus musculus, UniProt Q9DBC7)
[9] = molecular target: T5, AEA-DA lipid probe targets in Neuro2a cells (Mus musculus, UniProt Q9DBL9)
T5 sequence (Q9DBL9 1-351): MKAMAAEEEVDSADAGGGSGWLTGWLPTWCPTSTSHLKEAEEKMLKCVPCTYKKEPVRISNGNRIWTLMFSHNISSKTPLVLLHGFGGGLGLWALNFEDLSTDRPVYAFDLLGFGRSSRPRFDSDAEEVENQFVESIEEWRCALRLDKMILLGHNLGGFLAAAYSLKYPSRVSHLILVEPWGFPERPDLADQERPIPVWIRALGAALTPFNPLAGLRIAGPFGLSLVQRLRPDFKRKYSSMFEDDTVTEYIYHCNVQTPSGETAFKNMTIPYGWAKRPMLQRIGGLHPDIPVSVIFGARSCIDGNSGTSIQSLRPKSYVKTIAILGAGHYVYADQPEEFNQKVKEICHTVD

[10] = molecular target: AEA-DA lipid probe targets in Neuro2a cells (Mus musculus, UniProt Q9EPE9)
[11] = molecular target: T6, AEA-DA lipid probe targets in Neuro2a cells (Mus musculus, UniProt Q9R0P6); details: for SILAC ratio, SEC11A (P67812): Neuro2a cells, AEA-DA probe
T6 sequence (Q9R0P6 1-179): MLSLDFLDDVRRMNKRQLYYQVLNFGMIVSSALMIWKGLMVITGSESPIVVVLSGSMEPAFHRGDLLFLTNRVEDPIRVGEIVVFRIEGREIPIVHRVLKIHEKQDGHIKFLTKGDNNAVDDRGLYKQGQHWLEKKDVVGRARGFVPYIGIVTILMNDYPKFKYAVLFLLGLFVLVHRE

[12] = molecular target: AEA-DA lipid probe targets in Neuro2a cells (Mus musculus, UniProt Q9Z2I0)
Sequence of AEA-DA lipid probe targets in Neuro2a cells (Mus musculus, UniProt Q9Z2I0) (Q9Z2I0 115-738): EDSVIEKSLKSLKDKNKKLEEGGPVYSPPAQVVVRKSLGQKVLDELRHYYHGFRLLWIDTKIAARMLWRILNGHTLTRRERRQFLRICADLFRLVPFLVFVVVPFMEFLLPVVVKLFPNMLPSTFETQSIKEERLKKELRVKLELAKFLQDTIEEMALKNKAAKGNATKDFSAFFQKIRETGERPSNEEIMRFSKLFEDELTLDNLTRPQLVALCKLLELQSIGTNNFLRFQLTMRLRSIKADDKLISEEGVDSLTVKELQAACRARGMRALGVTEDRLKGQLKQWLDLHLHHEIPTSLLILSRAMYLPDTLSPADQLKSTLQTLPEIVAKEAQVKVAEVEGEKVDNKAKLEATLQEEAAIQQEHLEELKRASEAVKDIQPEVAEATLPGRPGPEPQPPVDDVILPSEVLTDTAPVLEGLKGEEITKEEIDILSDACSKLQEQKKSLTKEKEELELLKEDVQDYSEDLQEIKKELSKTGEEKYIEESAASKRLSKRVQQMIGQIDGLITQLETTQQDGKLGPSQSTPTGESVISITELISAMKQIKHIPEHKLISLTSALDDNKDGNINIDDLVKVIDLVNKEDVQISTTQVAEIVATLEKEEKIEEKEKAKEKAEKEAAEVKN

Sequence of AEA-DA lipid probe targets in Neuro2a cells (Mus musculus, UniProt P20152) (P20152 whole entry): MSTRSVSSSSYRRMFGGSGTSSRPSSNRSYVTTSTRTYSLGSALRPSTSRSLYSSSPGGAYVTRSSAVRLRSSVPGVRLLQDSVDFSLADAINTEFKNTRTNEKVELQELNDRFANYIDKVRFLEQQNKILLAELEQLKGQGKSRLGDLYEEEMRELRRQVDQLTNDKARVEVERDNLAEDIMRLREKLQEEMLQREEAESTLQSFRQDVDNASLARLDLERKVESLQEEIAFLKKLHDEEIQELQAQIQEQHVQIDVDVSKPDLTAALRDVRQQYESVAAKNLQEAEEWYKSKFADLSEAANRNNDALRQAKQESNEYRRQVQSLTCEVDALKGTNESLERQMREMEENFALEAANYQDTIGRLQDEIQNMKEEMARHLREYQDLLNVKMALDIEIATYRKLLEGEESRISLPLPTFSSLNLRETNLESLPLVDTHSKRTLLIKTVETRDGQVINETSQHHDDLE
Sequence of AEA-DA lipid probe targets in Neuro2a cells (Mus musculus, UniProt Q9DBC7) (Q9DBC7 whole entry): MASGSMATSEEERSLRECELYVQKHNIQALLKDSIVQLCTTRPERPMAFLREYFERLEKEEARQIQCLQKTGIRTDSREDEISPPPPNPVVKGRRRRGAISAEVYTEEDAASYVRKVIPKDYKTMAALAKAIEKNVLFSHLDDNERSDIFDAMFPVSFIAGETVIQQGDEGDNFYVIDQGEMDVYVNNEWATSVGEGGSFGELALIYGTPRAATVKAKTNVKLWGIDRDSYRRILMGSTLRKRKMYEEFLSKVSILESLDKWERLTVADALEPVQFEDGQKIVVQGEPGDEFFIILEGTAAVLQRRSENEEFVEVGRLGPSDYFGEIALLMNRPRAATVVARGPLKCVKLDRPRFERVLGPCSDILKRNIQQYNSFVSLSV
Sequence of AEA-DA lipid probe targets in Neuro2a cells (Mus musculus, UniProt Q8VDD5) (Q8VDD5 whole entry): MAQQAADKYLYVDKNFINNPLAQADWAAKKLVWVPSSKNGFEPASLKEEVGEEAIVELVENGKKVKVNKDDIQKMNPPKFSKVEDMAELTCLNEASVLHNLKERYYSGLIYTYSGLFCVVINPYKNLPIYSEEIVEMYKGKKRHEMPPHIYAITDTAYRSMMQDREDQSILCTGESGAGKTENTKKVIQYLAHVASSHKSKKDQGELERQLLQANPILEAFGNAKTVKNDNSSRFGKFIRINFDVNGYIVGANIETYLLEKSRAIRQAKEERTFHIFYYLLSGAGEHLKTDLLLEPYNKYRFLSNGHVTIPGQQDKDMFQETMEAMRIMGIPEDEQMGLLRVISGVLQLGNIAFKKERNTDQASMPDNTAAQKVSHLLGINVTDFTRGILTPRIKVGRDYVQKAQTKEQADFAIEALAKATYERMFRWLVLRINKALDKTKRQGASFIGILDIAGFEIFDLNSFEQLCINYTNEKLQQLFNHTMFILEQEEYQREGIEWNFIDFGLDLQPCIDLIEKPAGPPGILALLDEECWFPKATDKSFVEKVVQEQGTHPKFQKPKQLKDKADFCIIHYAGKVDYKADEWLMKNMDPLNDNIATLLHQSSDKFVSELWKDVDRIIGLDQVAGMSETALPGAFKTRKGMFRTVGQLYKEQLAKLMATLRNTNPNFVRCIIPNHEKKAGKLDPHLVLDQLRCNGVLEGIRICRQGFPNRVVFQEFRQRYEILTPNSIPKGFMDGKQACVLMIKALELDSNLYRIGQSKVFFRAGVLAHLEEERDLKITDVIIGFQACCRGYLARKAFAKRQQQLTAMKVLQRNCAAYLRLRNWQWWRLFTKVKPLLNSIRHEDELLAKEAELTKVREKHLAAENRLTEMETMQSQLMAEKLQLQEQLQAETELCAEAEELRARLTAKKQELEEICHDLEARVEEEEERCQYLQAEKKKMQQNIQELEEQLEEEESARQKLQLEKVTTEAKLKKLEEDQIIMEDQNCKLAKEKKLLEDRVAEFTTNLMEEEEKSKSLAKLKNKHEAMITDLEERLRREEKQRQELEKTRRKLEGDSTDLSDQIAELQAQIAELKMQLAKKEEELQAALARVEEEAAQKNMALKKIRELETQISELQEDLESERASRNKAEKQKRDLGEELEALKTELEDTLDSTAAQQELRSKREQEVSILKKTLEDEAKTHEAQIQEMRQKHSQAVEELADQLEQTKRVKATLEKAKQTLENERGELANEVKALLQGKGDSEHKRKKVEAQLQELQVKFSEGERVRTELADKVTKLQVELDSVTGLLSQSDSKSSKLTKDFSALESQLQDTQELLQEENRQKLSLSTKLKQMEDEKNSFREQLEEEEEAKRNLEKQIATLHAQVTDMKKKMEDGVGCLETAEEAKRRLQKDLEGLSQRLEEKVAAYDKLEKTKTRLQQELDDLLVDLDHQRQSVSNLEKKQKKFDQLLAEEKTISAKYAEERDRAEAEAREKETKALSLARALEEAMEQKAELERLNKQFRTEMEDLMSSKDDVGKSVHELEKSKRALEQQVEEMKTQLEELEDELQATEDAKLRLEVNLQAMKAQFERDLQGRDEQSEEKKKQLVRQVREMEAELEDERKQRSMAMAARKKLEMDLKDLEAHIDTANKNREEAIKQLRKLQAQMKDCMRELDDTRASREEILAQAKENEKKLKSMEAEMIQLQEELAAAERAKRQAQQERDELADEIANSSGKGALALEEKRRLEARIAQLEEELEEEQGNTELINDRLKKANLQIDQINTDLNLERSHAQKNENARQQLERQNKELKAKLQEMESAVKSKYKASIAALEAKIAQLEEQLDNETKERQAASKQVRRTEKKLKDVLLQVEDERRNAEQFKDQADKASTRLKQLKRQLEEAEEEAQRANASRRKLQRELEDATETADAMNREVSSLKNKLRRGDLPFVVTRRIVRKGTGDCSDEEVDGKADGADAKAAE
Sequence of AEA-DA lipid probe targets in Neuro2a cells (Mus musculus, UniProt Q9EPE9) (Q9EPE9 whole entry): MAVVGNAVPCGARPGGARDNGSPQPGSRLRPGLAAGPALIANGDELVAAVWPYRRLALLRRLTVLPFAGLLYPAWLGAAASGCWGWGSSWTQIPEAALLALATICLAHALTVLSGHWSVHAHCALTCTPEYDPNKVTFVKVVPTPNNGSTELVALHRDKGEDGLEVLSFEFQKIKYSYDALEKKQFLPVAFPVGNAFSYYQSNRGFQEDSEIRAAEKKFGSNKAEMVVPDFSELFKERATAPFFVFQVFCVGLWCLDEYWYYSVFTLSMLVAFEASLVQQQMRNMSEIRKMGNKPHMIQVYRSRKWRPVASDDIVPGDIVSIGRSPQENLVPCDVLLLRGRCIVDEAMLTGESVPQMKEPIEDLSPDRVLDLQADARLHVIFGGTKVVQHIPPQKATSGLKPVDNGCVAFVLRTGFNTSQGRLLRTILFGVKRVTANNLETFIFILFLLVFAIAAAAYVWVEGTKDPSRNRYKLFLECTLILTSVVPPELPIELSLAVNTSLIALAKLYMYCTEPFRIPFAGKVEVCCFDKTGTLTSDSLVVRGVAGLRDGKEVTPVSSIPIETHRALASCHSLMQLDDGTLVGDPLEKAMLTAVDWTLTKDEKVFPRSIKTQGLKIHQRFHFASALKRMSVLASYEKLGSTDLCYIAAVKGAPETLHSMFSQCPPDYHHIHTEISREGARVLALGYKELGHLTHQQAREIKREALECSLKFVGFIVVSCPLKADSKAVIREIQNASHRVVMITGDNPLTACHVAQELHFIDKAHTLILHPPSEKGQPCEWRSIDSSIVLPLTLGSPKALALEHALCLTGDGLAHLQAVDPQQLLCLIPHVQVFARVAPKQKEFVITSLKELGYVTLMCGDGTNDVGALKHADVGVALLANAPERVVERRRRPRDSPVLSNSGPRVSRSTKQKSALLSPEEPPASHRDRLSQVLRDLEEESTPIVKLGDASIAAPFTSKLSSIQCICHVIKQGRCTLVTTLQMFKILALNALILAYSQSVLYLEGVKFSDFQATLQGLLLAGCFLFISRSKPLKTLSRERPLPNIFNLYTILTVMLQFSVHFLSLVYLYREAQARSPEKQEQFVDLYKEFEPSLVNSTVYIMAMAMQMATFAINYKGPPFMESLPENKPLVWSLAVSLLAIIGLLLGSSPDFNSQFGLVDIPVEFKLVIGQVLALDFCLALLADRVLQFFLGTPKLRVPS
Sequence of AEA-DA lipid probe targets in Neuro2a cells (Mus musculus, UniProt Q9D8N0) (Q9D8N0 whole entry): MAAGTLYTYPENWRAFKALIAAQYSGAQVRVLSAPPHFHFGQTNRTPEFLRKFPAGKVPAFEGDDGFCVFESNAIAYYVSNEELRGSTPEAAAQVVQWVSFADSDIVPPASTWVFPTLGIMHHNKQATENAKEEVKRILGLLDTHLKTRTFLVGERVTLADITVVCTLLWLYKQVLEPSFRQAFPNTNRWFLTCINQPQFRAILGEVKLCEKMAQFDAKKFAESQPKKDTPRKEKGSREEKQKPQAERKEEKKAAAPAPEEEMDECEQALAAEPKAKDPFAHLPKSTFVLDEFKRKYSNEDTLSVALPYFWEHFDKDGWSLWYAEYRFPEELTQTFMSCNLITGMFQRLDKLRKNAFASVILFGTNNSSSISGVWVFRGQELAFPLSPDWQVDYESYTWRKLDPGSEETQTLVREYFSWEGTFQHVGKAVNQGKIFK

CCCCC/C=C\C/C=C\C/C=C\C/C=C\CCCC(=O)NCCO [AEA, anandamide, reference compound]
SILAC ratio, HSD17B12 (Q53GQ0) ([1]; competitor 200 μM): 2.2
SILAC ratio, Hsd17b12 ([1]; competitor 200 μM): 2.2
SILAC ratio Vim ([2]; competitor 200 μM): 0.9
SILAC ratio, Slc25a26 ([3]; competitor 200 μM): 1.0
SILAC ratio Slc25a12 ([4]; competitor 200 μM): 1.1
SILAC ratio Myh9 ([5]; competitor 200 μM): 1.1
SILAC ratio, Tmed10 ([6]; competitor 200 μM): 1.5
SILAC ratio Eef1g ([7]; competitor 200 μM): 1.4
SILAC ratio, Prkar1a ([8]; competitor 200 μM): 1.2
SILAC ratio, Abhd5 ([9]; competitor 200 μM): 1.3
SILAC ratio Atp13a1 ([10]; competitor 200 μM): 1.4
SILAC ratio, SEC11A (P67812) ([11]; competitor 200 μM): 1.9
SILAC ratio, Sec11a ([11]; competitor 200 μM): 1.9
SILAC ratio Letm1 ([12]; competitor 200 μM): 0.6

O=C(/C=C/c1cccnc1)NCCCCC1CCN(C(=O)c2ccccc2)CC1 [FK-866, reference compound]
SILAC ratio, HSD17B12 (Q53GQ0) ([1]; competitor 25 μM): 1.7
SILAC ratio, Hsd17b12 ([1]; competitor 25 μM): 1.7
SILAC ratio Vim ([2]; competitor 25 μM): 1.2
SILAC ratio, Slc25a26 ([3]; competitor 25 μM): 0.8
SILAC ratio Slc25a12 ([4]; competitor 25 μM): 1.1
SILAC ratio Myh9 ([5]; competitor 25 μM): 1.2
SILAC ratio, Tmed10 ([6]; competitor 25 μM): 1.1
SILAC ratio Eef1g ([7]; competitor 25 μM): 1.5
SILAC ratio, Prkar1a ([8]; competitor 25 μM): 1.5
SILAC ratio, Abhd5 ([9]; competitor 25 μM): 1.0
SILAC ratio Atp13a1 ([10]; competitor 25 μM): 1.1
SILAC ratio, SEC11A (P67812) ([11]; competitor 25 μM): 1.1
SILAC ratio, Sec11a ([11]; competitor 25 μM): 1.1
SILAC ratio Letm1 ([12]; competitor 25 μM): 1.5

CN1CCN(C(=O)c2c(-c3ccccc3)c3cc([N+](=O)[O-])ccc3n2C)CC1 [KML110, (1-Methyl-5-nitro-3-phenyl-1H-indol-2-yl)(4-methylpiperazin-1-yl)methanone]
SILAC ratio, Hsd17b12 ([1]; competitor 25 μM): 1.7
SILAC ratio Vim ([2]; competitor 25 μM): 1.2
SILAC ratio, Slc25a26 ([3]; competitor 25 μM): 0.7
SILAC ratio Slc25a12 ([4]; competitor 25 μM): 1.1
SILAC ratio Myh9 ([5]; competitor 25 μM): 1.7
SILAC ratio, Tmed10 ([6]; competitor 25 μM): 1.2
SILAC ratio Eef1g ([7]; competitor 25 μM): 1.4
SILAC ratio, Prkar1a ([8]; competitor 25 μM): 1.6
SILAC ratio, Abhd5 ([9]; competitor 25 μM): 2.0
SILAC ratio Atp13a1 ([10]; competitor 25 μM): 1.7
SILAC ratio, Sec11a ([11]; competitor 25 μM): 1.6
SILAC ratio Letm1 ([12]; competitor 25 μM): 1.1

CN1CCN(C(=O)c2[nH]c3ccc([N+](=O)[O-])cc3c2-c2ccccc2)CC1 [MJN228, (4-Methylpiperazin-1-yl)(5-nitro-3-phenyl-1H-indol-2-yl)methanone]
SILAC ratio, HSD17B12 (Q53GQ0) ([1]; competitor 25 μM): 1.6
SILAC ratio, Hsd17b12 ([1]; competitor 10 μM): 1.2
SILAC ratio, Hsd17b12 ([1]; competitor 25 μM): 1.6
SILAC ratio, Hsd17b12 ([1]; competitor 50 μM): 1.7
SILAC ratio, Hsd17b12 ([1]; competitor 100 μM): 2.3
SILAC ratio Vim ([2]; competitor 10 μM): 1.2
SILAC ratio Vim ([2]; competitor 25 μM): 1.2
SILAC ratio Vim ([2]; competitor 50 μM): 0.9
SILAC ratio Vim ([2]; competitor 100 μM): 1.0
SILAC ratio, Slc25a26 ([3]; competitor 10 μM): 0.9
SILAC ratio, Slc25a26 ([3]; competitor 25 μM): 0.7
SILAC ratio, Slc25a26 ([3]; competitor 50 μM): 0.3
SILAC ratio, Slc25a26 ([3]; competitor 100 μM): 0.4
SILAC ratio Slc25a12 ([4]; competitor 10 μM): 1.0
SILAC ratio Slc25a12 ([4]; competitor 25 μM): 1.0
SILAC ratio Slc25a12 ([4]; competitor 50 μM): 0.9
SILAC ratio Slc25a12 ([4]; competitor 100 μM): 1.0
SILAC ratio Myh9 ([5]; competitor 10 μM): 1.2
SILAC ratio Myh9 ([5]; competitor 25 μM): 1.3
SILAC ratio Myh9 ([5]; competitor 50 μM): 1.2
SILAC ratio Myh9 ([5]; competitor 100 μM): 1.6
SILAC ratio, Tmed10 ([6]; competitor 10 μM): 1.1
SILAC ratio, Tmed10 ([6]; competitor 25 μM): 1.4
SILAC ratio, Tmed10 ([6]; competitor 50 μM): 1.5
SILAC ratio, Tmed10 ([6]; competitor 100 μM): 1.6
SILAC ratio Eef1g ([7]; competitor 10 μM): 1.1
SILAC ratio Eef1g ([7]; competitor 25 μM): 1.1
SILAC ratio Eef1g ([7]; competitor 50 μM): 1.0
SILAC ratio Eef1g ([7]; competitor 100 μM): 1.3
SILAC ratio, Prkar1a ([8]; competitor 10 μM): 1.9
SILAC ratio, Prkar1a ([8]; competitor 25 μM): 1.9
SILAC ratio, Prkar1a ([8]; competitor 50 μM): 2.1
SILAC ratio, Prkar1a ([8]; competitor 100 μM): 2.8
SILAC ratio, Abhd5 ([9]; competitor 10 μM): 1.6
SILAC ratio, Abhd5 ([9]; competitor 25 μM): 2.2
SILAC ratio, Abhd5 ([9]; competitor 50 μM): 4.0
SILAC ratio, Abhd5 ([9]; competitor 100 μM): 14.3
SILAC ratio Atp13a1 ([10]; competitor 10 μM): 1.3
SILAC ratio Atp13a1 ([10]; competitor 25 μM): 1.7
SILAC ratio Atp13a1 ([10]; competitor 50 μM): 2.0
SILAC ratio Atp13a1 ([10]; competitor 100 μM): 2.2
SILAC ratio, SEC11A (P67812) ([11]; competitor 25 μM): 1.6
SILAC ratio, Sec11a ([11]; competitor 10 μM): 1.2
SILAC ratio, Sec11a ([11]; competitor 25 μM): 1.6
SILAC ratio, Sec11a ([11]; competitor 50 μM): 1.7
SILAC ratio, Sec11a ([11]; competitor 100 μM): 2.3
SILAC ratio Letm1 ([12]; competitor 10 μM): 1.3
SILAC ratio Letm1 ([12]; competitor 25 μM): 1.5
SILAC ratio Letm1 ([12]; competitor 50 μM): 1.2
SILAC ratio Letm1 ([12]; competitor 100 μM): 1.1

C=CCN(C)CCCCCCOc1ccc(C(=O)c2ccc(Br)cc2)c(F)c1 [Ro 48-8071, reference compound]
SILAC ratio, HSD17B12 (Q53GQ0) ([1]; competitor 25 μM): 0.9
SILAC ratio, Hsd17b12 ([1]; competitor 25 μM): 0.9
SILAC ratio Vim ([2]; competitor 25 μM): 0.8
SILAC ratio, Slc25a26 ([3]; competitor 25 μM): 0.7
SILAC ratio Slc25a12 ([4]; competitor 25 μM): 1.0
SILAC ratio Myh9 ([5]; competitor 25 μM): 1.0
SILAC ratio, Tmed10 ([6]; competitor 25 μM): 1.0
SILAC ratio Eef1g ([7]; competitor 25 μM): 0.9
SILAC ratio, Prkar1a ([8]; competitor 25 μM): 1.0
SILAC ratio, Abhd5 ([9]; competitor 25 μM): 1.4
SILAC ratio Atp13a1 ([10]; competitor 25 μM): 1.2
SILAC ratio, SEC11A (P67812) ([11]; competitor 25 μM): 1.6
SILAC ratio, Sec11a ([11]; competitor 25 μM): 1.6
SILAC ratio Letm1 ([12]; competitor 25 μM): 1.3
